The text below walks through data of patent US8354274B2, “Synthetic surfaces for culturing cells in chemically defined media” (Geron Corporation, priority 2008, dated 2013).

Bridges are numbered along the chain shown (N, C = ends). Where no end group is shown, it is not given here.

In one test the test system is HepG2/C3A cells. In words: Serum-free attachment of HepG2/C3A cells (LDH activity, absorbance at 490 nm). The format is cell-based. The following applies: peptide conjugated to SA layer, 24 hours. The procedure:
HepG2/C3A cells (ATCC # CRL-10741) were plated at 25,000 cells per well in 100 μl media in triplicate on SAP surfaces, BD BioCoat™ Collagen I and Corning CellBind® treated Topas™ in a 96 well format and cultured at in Eagle's Minimum Essential Medium (ATCC #30-2003) supplemented with 1% penicillin-streptomycin (Invitrogen #15140-155). The culture medium was not supplemented with fetal bovine serum (as recommended by the cell line supplier) nor was the SAP surface exposed to fetal bovine serum. The culture plates were incubated at 37° C., in 5% CO2 and 95% relative humidity for 24 hours. The cell culture plates having the SA surfaces were prepared as described in EXAMPLE 1. Peptides were conjugated according to EXAMPLE 2. […] The line in FIG. 24 indicates 75% performance of cells on Collagen 1.
The attachment of the HepG2/C3A cells was determined using a Cytotoxicity Assay (Promega CytoTox 96® Non-Radioactive Cytotoxicity Assay # G1780) which estimates the number of living cells attached to the culture surfaces. After 24 hours of in culture, the cells were vigorously washed with phosphate buffer, lysed via the introduction of the lysis buffer solution and incubation at 37 C for 1 hour to release lactate dehydrogenase (LDH) enzyme from the viable cells that remain attached to the culture surfaces. The biological activity of the released lactate dehydrogenase enzyme was measured via absorbance at 490 nm using a plate reader (Victor 3 from PerkinElmer).

Test [1] concerns HT-1080 human fibrosarcoma cells. In words: HT-1080 cell adhesion assay (crystal violet, absorbance at 570 nm). It is filed as cell-based. Particulars: for HT-1080 adhesion compared with linear BSP (SEQ ID NO:4)-conjugated (meth)acrylate: cyclic peptide conjugated to Formulation SA1, normalized to fibronectin (FN, 5 mg/mL)-coated surfaces. The text has this:
To evaluate ability of a polypeptide conjugated to embodiments of swellable (meth)acrylate using these conjugation methods to enable cell adhesion and proliferation, peptides Ac-LysTyrGlyArgLysArgLeuGlnValGlnLeuS erIleArgThr-NH2 (SE Q ID NO:22) (AG-73, an adhesive peptide) and Ac-GlyArgGlyGluSerProIleTyrLys-NH2 (SEQ ID NO:30) (RGE, a negative control) were conjugated to swellable (meth)acrylate (as described above) and adhesion of HT-1080 human fibrosarcoma cells to the swellable (meth)acrylate was evaluated. Briefly, Laminin (5 μg/mL, Sigma-Aldrich) control wells were coated for 1 hour at room temperature. All wells were blocked with 1% bovine serum albumin (BSA) in phosphate buffered saline (PBS) for 1 hour at 37° C. Wells were washed briefly with PBS before incubation with 0.1% BSA in Iscove's Modified Dulbecco's Medium (IMDM) prior to cell seeding. HT-1080 human fibrosarcoma cells (ATCC number: CCL-121) were grown in IMDM (Lonza) with 10% FBS (Lonza) to 90% confluency at standard cell culture conditions. Cells were trypsinized and allowed to recover in IMDM with 10% FBS for 30 minutes at 37° C., 5% CO2. After recovery, cells were washed and resuspended in 0.1% BSA in IMDM and seeded on peptide-conjugated plates at a density of 30,000 cells/well. Cell adhesion was allowed to take place for 1 hour at standard cell culture conditions. The media was aspirated from the wells and adherent cells were fixed and stained in 50 μL of 0.2% crystal violet in 20% methanol for 8 minutes at room temperature. Cellular absorption of crystal violet was quantified through addition of 1% SDS in H2O for 5 minutes prior to absorbance measurement at 570 nm. For this assay, after polypeptide conjugation the remaining NHS esters on the swellable (meth)acrylate were reacted with ethanolamine or aminopropyl morpholine to reduce uptake of crystal violet dye by the swellable (meth)acrylate.

In another test the test system is H7 hES cells. The experiment in a line: AttoPhos screening (alkaline phosphatase activity) of undifferentiated hES cells in chemically defined medium. It is filed as cell-based, human. The following applies: for support of culture of undifferentiated stem cells (AttoPhos): peptides conjugated to Formulation SA1 at 10, 100 and 1000 μM input concentration. The procedure:
All experimental plates were sterilized prior to the cell seeding by spraying with 70% ETOH, drying in a laminar hood, and washing five times with 200 μl Dulbecco's Phosphate Buffered Saline (DPBS). H7 hES cells were seeded on peptide conjugated swellable (meth)acrylate (SAP) surfaces at a density of 35,000 cells/well (96-well plate) in 100 μl of chemically defined medium Xvivo10 (Lonza, Cat #04-743Q) and supplemented with 80 ng/ml basic fibroblast growth factor (bFGF) (R&D systems, Cat #234-FSE/CF) and 0.5 ng/ml transforming growth factor-β1 (TGFβ1) (R&D systems, Cat. #240B). MATRIGEL™ (MG)-coated wells were used as positive control for adhesion of undifferentiated hES cells. Cells were cultured for 48 hrs under standard cell culture conditions (37° C. with 5% CO2) and then were fixed and processed for AttoPhos assay to measure alkaline phosphatase activity, which is a known marker for undifferentiated hES cells, and/or BCIP staining as described below.
AttoPhos screening was performed as follows. Briefly, at the end of incubation time, cells were rinsed with 150 μl of DPBS and fixed with 4% paraformaldehyde for 10 min at room temperature (70 μl/well of 96-well plate). The cells were washed once with 150 μl of DPBS, and treated for 10 min with 100 μl of AttoPhos fluorescent substrate for alkaline phosphatase (Promega) (diluted 1:3 in DPBS) protected from light. AttoPhos fluorescent intensity at 485/535 nm was obtained using Victor 3 microplate reader (Perklin Elmer). AttoPhos fluorescent intensity for experimental surfaces was expressed as % of MATRIGEL™ control.

Where [2] appears, read: peptide conjugated to swellable (meth)acrylate, 1 hour adhesion, OD570 nm normalized to Laminin.

With KYGKAFDITYVRLKF [SEQ ID NO:21], in the test with HepG2/C3A cells, the “serum-free attachment of HepG2/C3A cells compared with CellBind treated Topas” value is given as “greater than CellBind® treated Topas™”.

“Ac-LysGlyGlyLys^4AsnGlyGluProArgGlyAspThrTyrArgAlaTyrAsp^17-NH2 (Ac-KGGKNGEPRGDTYRAYD-NH2; lactam 4-17; SMILES CC(=O)N[C@@H](CCCCN)C(=O)NCC(=O)NCC(=O)N[C@H]1CCCCNC(=O)C[C@@H](C(N)=O)NC(=O)[C@H](Cc2ccc(O)cc2)NC(=O)[C@H](C)NC(=O)[C@H](CCCNC(=N)N)NC(=O)[C@H](Cc2ccc(O)cc2)NC(=O)[C@H]([C@@H](C)O)NC(=O)[C@H](CC(=O)O)NC(=O)CNC(=O)[C@H](CCCNC(=N)N)NC(=O)[C@@H]2CCCN2C(=O)[C@H](CCC(=O)O)NC(=O)CNC(=O)[C@H](CC(N)=O)NC1=O) [SEQ ID NO:6]”: the “HT-1080 adhesion compared with linear BSP (SEQ ID NO:4)-conjugated (meth)acrylate” value in test [1] is on record as “supported HT-1080 adhesion similarly to linear BSP-conjugated (meth)acrylates”. In the case of “Ac-LysGlyGlyCys^4AsnGlyGluProArgGlyAspThrTyrArgAlaTyrCys^17-NH2 (Ac-KGGCNGEPRGDTYRAYC-NH2; disulfide 4-17; SMILES CC(=O)N[C@@H](CCCCN)C(=O)NCC(=O)NCC(=O)N[C@H]1CSSC[C@@H](C(N)=O)NC(=O)[C@H](Cc2ccc(O)cc2)NC(=O)[C@H](C)NC(=O)[C@H](CCCNC(=N)N)NC(=O)[C@H](Cc2ccc(O)cc2)NC(=O)[C@H]([C@@H](C)O)NC(=O)[C@H](CC(=O)O)NC(=O)CNC(=O)[C@H](CCCNC(=N)N)NC(=O)[C@@H]2CCCN2C(=O)[C@H](CCC(=O)O)NC(=O)CNC(=O)[C@H](CC(N)=O)NC1=O) [SEQ ID NO:8]”, in test [1], the “HT-1080 adhesion compared with linear BSP (SEQ ID NO:4)-conjugated (meth)acrylate” value is “supported HT-1080 adhesion similar to”. In the case of “Ac-LysGlyGlyCys^4GluProArgGlyAspThrTyrArgCys^17-NH2 (Ac-KGGCEPRGDTYRC-NH2; disulfide 4-13; SMILES CC(=O)N[C@@H](CCCCN)C(=O)NCC(=O)NCC(=O)N[C@H]1CSSC[C@@H](C(N)=O)NC(=O)[C@H](CCCNC(=N)N)NC(=O)[C@H](Cc2ccc(O)cc2)NC(=O)[C@H]([C@@H](C)O)NC(=O)[C@H](CC(=O)O)NC(=O)CNC(=O)[C@H](CCCNC(=N)N)NC(=O)[C@@H]2CCCN2C(=O)[C@H](CCC(=O)O)NC1=O) [SEQ ID NO:9]”, the “HT-1080 adhesion compared with linear BSP (SEQ ID NO:4)-conjugated (meth)acrylate” value in test [1] is “supported HT-1080 adhesion similar to”.

Turning to KGGTWYKIAFQRNRK [SEQ ID NO:16], in the test with HepG2/C3A cells, the “attachment of HepG2/C3A cells compared to Collagen I” value was “*CLS 01020 (Polypeptides exhibiting results better than 75% attachment compared to Collagen I (see FIG. 24) are marked with an asterix in Table 6)” and the “serum-free attachment of HepG2/C3A cells compared with CellBind treated Topas” value was “greater than CellBind® treated Topas™”. On to “KGGGQKCIVQTTSWSQCSKS (cysteine pairing not given here) [SEQ ID NO:13]”, for which the “serum-free attachment of HepG2/C3A cells compared with CellBind treated Topas” value in the test on HepG2/C3A cells is “greater than CellBind® treated Topas™”. For the substance “Ac-LysGlyGlyLys^4GluProArgGlyAspThrTyrArgAsp^13-NH2 (Ac-KGGKEPRGDTYRD-NH2; lactam 4-13; SMILES CC(=O)N[C@@H](CCCCN)C(=O)NCC(=O)NCC(=O)N[C@H]1CCCCNC(=O)C[C@@H](C(N)=O)NC(=O)[C@H](CCCNC(=N)N)NC(=O)[C@H](Cc2ccc(O)cc2)NC(=O)[C@H]([C@@H](C)O)NC(=O)[C@H](CC(=O)O)NC(=O)CNC(=O)[C@H](CCCNC(=N)N)NC(=O)[C@@H]2CCCN2C(=O)[C@H](CCC(=O)O)NC1=O) [SEQ ID NO:7]”, in test [1], the “HT-1080 adhesion compared with linear BSP (SEQ ID NO:4)-conjugated (meth)acrylate” value is on record as “supported HT-1080 adhesion similarly to linear BSP-conjugated (meth)acrylates”. With “Ac-LysTyrGlyArgLysArgLeuGlnValGlnLeuSerIleArgThr-NH2 (Ac-KYGRKRLQVQLSIRT-NH2) [AG-73]”, the “adhesion of HT-1080 cells” value is “did not result in cell adhesive surface” in test [1] (1 μM peptide solution used for conjugation), “resulted in an adhesive surface” in test [1] (10 μM peptide solution used for conjugation), “resulted in an adhesive surface” in test [1] (100 μM peptide solution used for conjugation) and “adhered specifically” in test [1] (setting [2]). Take “GlyArgGlyAspSerProLys (GRGDSPK; Synthetic polypeptide including sequence derived from human fibronectin) [s-FN]”: the “support of culture of undifferentiated stem cells (AttoPhos)” value in the test with H7 hES cells is “comparable in performance to the long fibronectin sequence”. In the case of “Ac-LysGlyGlyAsnGlyGluProArgGlyAspThrTyrArgAlaTyr-NH2 (Ac-KGGNGEPRGDTYRAY-NH2) [SEQ ID NO:4]”, in the test on H7 hES cells (SEQ ID NO:4 conjugated to Formulation SA1A using 1000 μM solution, Xvivo10 + bFGF + TGFβ1, 48 hrs), the “AttoPhos fluorescence intensity (FI) compared to MATRIGEL control” value is 56-60%. In the test with H7 hES cells (peptide at 1, 10, 100 and 1000 μM, formulation SA1A surfaces), the “adhesion and growth of undifferentiated stem cells versus peptide concentration (AttoPhos)” value is recorded as “peptide concentration dependent”. The “support of culture of undifferentiated stem cells (AttoPhos)” value in the test with H7 hES cells is recorded as “appeared to better support the culture of undifferentiated stem cells”. As for “Ac-GlyArgGlyGluSerProIleTyrLys-NH2 (Ac-GRGESPIYK-NH2) [reference compound]”, in test [1] (setting [2]), the “adhesion of HT-1080 cells” value is reported as “did not adhere”.

Regarding KYGSETTVKYIFRLHE [SEQ ID NO:19], in the test on HepG2/C3A cells, the “attachment of HepG2/C3A cells compared to Collagen I” value is listed as “*CLS 01035 (Polypeptides exhibiting results better than 75% attachment compared to Collagen I (see FIG. 24) are marked with an asterix in Table 6)” and the “serum-free attachment of HepG2/C3A cells compared with CellBind treated Topas” value is reported as “greater than CellBind® treated Topas™”.
